Laboratory results as given in patent US11813239B2, “Compositions and methods for improving cardiac structure and/or function” (Wisconsin Alumni Research Foundation, priority 2020, dated 2023).

How the values were obtained:
cardiomyocytes = assay: Immunostaining (pH3, Aurora B), WGA and trichrome staining after MI in P7 mice; conditions: vs controls
Description: We then analyzed the hearts following injury to determine whether malonate results in prolongation of the neonatal regenerative window (FIG. 5A). To examine whether malonate stimulates cardiomyocyte proliferation, we performed MI in 7-day-old mice and analyzed their hearts at 7 days post-MI by immunostaining for markers of proliferation.
(§1) Neonatal mice at postnatal day 1 (P1) or day 7 (P7) were used for myocardial infarction (MI) surgery. Neonatal mice were subjected to MI surgeries as previously described. Briefly, neonates were anesthetized by hypothermia on ice. Lateral thoracotomy at the fourth intercostal space was performed by blunt dissection of the intercostal muscles after skin incision. A C-1 tapered needle attached to a 6-0 prolene suture (Ethicon Inc., Bridgewater, N.J.) was passed through the mid-ventricle below the left anterior descending coronary artery (LAD) and tied off to induce MI. The prolene suture was used to suture the ribs together and seal the chest wall incisions, and the skin was closed using adhesive glue (3M). The mice then were warmed on a heating pad until recovery. Sham-operated mice underwent the same procedure including hypothermic anesthesia, but not LAD ligation.
(§2) Neonatal mice were weighed and injected daily with either saline, 100 mg/kg dimethyl succinate (Sigma), 100 mg/kg dimethyl malonate (Sigma), or 100 μg/kg Atpenin A5 (Enzo Life Sciences). Dimethyl succinate and dimethyl malonate were dissolved in saline. Stock solution of Atpenin A5 at 0.1 mg/ml was initially prepared by dissolving in DMSO (Sigma) and then further diluted with saline before injection. Saline was used as a vehicle control for all experiments.
Hearts were harvested and fixed in 4% paraformaldehyde (PFA) in PBS solution overnight at 4° C., processed for paraffin embedding, and sectioned in intervals. Masson's trichrome staining was performed according to the manufacture's protocol (Newcomer Supply, Middleton, WI). Scar size measurements were quantified from at least 3 sections of the heart from ligature to apex. ImageJ was used to quantify the fibrotic scar, and the average scar area for each heart was plotted.
We injected dimethyl malonate (100 mg/kg, daily) in neonatal mice directly after birth for 2 weeks with an MI performed once the mice reached P7.

[1] = test system: postnatal (P7) mouse heart following myocardial infarction; assay: Echocardiography after myocardial infarction in P7 juvenile mice; conditions: for % EF (Ejection Fraction) / % FS (Fractional Shortening) / LV Mass (Left Ventricular Mass, Anatomical Weight) / LV Vol; d (Left Ventricular Volume; diastole) / LV Vol; s (Left Ventricular Volume; systole) / LVAWD (Left Ventricle Anterior Wall Thickness Diastole) / LVAWS (Left Ventricle Anterior Wall Thickness Systole) / LVIDD (Left Ventricle Internal Diameter Diastole) / LVIDS (Left Ventricle Internal Diameter Systole) / LVPWD (Left Ventricle Posterior Wall Thickness Diastole) / LVPWS (Left Ventricle Posterior Wall Thickness Systole): Atpenin A5 100 μg/kg daily, mean ± SE
Protocol: as §1, §2
Transthoracic echocardiography was performed by using a Visual Sonics 770 ultrasonograph with a 25-MHz transducer (Visual Sonics, Toronto) as described previously^19. Mice were lightly anesthetized with 1% isoflurane and maintained on a heated platform. Two-dimensionally guided M-mode images from a parasternal long axis (PLAX) of the left ventricle (LV) were acquired at the tip of the papillary muscles. Wall thickness and chamber diameters were measured in both diastole and systole. Fractional shortening was calculated as (LVDd−LVDs)/LVDd×100, where LVDd is LV diameter in diastole and LVDs is LV diameter in systole. Ejection fraction was calculated as [(7.0/(2.4+LVDd)(LVDd)^3−(7.0/(2.4+LVDs)(LVDs)^3/(7.0/(2.4+LVDd)(LVDd)^3×100 and LV mass was calculated by using the formula [1.05×((Posterior Walldiastole+Anterior Walldiastole+LVDd)^3−(LVDd)^3)]. All parameters were measured over at least three consecutive cycles.
We injected dimethyl malonate (100 mg/kg, daily) in neonatal mice directly after birth for 2 weeks with an MI performed once the mice reached P7. We then analyzed the hearts following injury to determine whether malonate results in prolongation of the neonatal regenerative window (FIG. 10A).

SDH = SDH (Homo sapiens, UniProt O14521+P21912+Q99643); conditions: literature reference 21 (Miyadera et al. 2003); cited from earlier work
Chain of SDH (P31040 43-664 partner): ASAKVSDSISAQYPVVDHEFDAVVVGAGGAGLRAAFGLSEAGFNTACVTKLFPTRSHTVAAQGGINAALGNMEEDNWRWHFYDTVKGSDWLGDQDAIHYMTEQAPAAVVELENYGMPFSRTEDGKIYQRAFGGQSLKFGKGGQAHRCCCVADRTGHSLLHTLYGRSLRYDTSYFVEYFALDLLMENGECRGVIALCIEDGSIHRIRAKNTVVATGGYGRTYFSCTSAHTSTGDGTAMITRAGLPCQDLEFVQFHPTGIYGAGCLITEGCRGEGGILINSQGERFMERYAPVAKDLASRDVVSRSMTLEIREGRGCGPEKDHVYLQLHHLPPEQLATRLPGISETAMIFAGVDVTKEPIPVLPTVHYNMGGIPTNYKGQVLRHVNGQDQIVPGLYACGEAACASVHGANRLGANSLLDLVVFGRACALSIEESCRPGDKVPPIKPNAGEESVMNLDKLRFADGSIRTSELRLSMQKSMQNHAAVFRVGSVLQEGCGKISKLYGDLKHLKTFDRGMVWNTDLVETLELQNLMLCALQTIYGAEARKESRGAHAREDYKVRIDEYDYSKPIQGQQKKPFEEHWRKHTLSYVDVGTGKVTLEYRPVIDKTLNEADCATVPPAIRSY
Chain of SDH (P21912 29-280): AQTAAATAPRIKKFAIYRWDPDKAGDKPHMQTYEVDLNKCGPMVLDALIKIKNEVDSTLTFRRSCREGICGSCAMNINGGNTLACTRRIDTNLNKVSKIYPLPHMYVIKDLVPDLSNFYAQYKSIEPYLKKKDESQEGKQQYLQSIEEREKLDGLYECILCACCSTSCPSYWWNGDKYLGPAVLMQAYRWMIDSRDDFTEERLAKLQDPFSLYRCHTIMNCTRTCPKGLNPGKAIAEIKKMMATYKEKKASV
Chain of SDH (Q99643 30-169): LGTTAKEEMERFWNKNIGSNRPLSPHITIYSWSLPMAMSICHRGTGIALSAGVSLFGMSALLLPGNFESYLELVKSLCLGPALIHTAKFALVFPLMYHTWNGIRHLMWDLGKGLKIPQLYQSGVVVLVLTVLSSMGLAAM
Chain of SDH (O14521 57-159): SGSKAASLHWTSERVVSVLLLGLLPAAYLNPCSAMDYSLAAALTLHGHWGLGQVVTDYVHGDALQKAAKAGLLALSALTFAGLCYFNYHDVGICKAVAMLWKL

[2] = MI at P7, Atpenin A5 100 μg/kg daily, 7 days post-MI
[3] = MI at P7, Atpenin A5 100 μg/kg daily, 21 days post-MI
[4] = MI at P7 (n = 8), echo 21 days post-MI (P7D21)
[5] = sham at P7 (SH, n = 6), echo at day 21 (P7D21)

COc1[nH]c(=O)c(C(=O)[C@@H](C)C[C@H](C)[C@@H](Cl)CCl)c(O)c1OC [Atpenin A5]
percentage of cardiomyocytes undergoing cytokinesis (Aurora B staining) (cardiomyocytes; [2]): significant increase
percentage of cardiomyocytes undergoing mitosis (pH3 staining) (cardiomyocytes; [2]): significant increase
myocardial regeneration (trichrome staining) (cardiomyocytes; [3]): myocardial thickness at the infarct zone
scar size (trichrome staining, ImageJ) (cardiomyocytes; [3]): significant reduction in scar size
% EF (Ejection Fraction) [1, 4]: 49.676 ± 2.072%
% FS (Fractional Shortening) [1, 4]: 24.642 ± 1.227%
LV Mass (Left Ventricular Mass, Anatomical Weight) [1, 4]: 54.203 ± 7.978 mg
LV Vol; d (Left Ventricular Volume; diastole) [1, 4]: 50.033 ± 6.416 µL
LV Vol; s (Left Ventricular Volume; systole) [1, 4]: 25.290 ± 3.427 µL
LVAWD (Left Ventricle Anterior Wall Thickness Diastole) [1, 4]: 0.525 ± 0.023 mm
LVAWS (Left Ventricle Anterior Wall Thickness Systole) [1, 4]: 0.644 ± 0.032 mm
LVIDD (Left Ventricle Internal Diameter Diastole) [1, 4]: 3.438 ± 0.167 mm
LVIDS (Left Ventricle Internal Diameter Systole) [1, 4]: 2.592 ± 0.132 mm
LVPWD (Left Ventricle Posterior Wall Thickness Diastole) [1, 4]: 0.521 ± 0.025 mm
LVPWS (Left Ventricle Posterior Wall Thickness Systole) [1, 4]: 0.643 ± 0.027 mm
cardiac function by echocardiography ([1]; MI at P7, Atpenin A5 100 μg/kg daily, 3 weeks post-MI): restoration of cardiac function
% EF (Ejection Fraction) [1, 5]: 51.652 ± 3.984%
% FS (Fractional Shortening) [1, 5]: 25.773 ± 2.586%
LV Mass (Left Ventricular Mass, Anatomical Weight) [1, 5]: 42.822 ± 4.210 mg
LV Vol; d (Left Ventricular Volume; diastole) [1, 5]: 39.614 ± 7.039 µL
LV Vol; s (Left Ventricular Volume; systole) [1, 5]: 19.979 ± 4.374 µL
LVAWD (Left Ventricle Anterior Wall Thickness Diastole) [1, 5]: 0.493 ± 0.042 mm
LVAWS (Left Ventricle Anterior Wall Thickness Systole) [1, 5]: 0.615 ± 0.041 mm
LVIDD (Left Ventricle Internal Diameter Diastole) [1, 5]: 3.100 ± 0.229 mm
LVIDS (Left Ventricle Internal Diameter Systole) [1, 5]: 2.319 ± 0.221 mm
LVPWD (Left Ventricle Posterior Wall Thickness Diastole) [1, 5]: 0.536 ± 0.027 mm
LVPWS (Left Ventricle Posterior Wall Thickness Systole) [1, 5]: 0.648 ± 0.030 mm
inhibition of SDH (SDH): potent inhibitor of SDH

COC1=C(OC)C(=O)C(CCCCCCCCCC[P+](c2ccccc2)(c2ccccc2)c2ccccc2)=C(C)C1=O [MitoQ]
cardiomyocyte mitosis (pH3 immunostaining) (cardiomyocytes; MI at P7, MitoQ 10 mg/kg intraperitoneally daily for 2 weeks after birth, 7 days post-MI): significant increase in cardiomyocyte mitosis
cardiac function by echocardiography (EF and FS) ([1]; MI at P7, MitoQ 10 mg/kg intraperitoneally daily for 2 weeks after birth, vs controls): no improvement in cardiac function
